Results published in patent US20080132509A1, “Substituted Biaryl Analogues” (Neurogen Corporation, priority 2004, published 2008).

biological target: T1, human capsaicin receptor (Homo sapiens, UniProt Q8NER1); experiment: Calcium mobilization assay, determination of antagonist activity; assay type: cell-based; details: cells expressing human capsaicin receptor, capsaicin at EC50, FLUO-3 fluorescence; read-out: IC50 (antag.)
T1 construct: expressed in transfected cells
Protocol: (§1) A cDNA encoding full length human capsaicin receptor (SEQ ID NO: 1, 2 or 3 of U.S. Pat. No. 6,482,611) was subcloned in the plasmid pBK-CMV (Stratagene, La Jolla, Calif.) for recombinant expression in mammalian cells.
(§2) Human embryonic kidney (HEK293) cells were transfected with the pBK-CMV expression construct encoding the full length human capsaicin receptor using standard methods. The transfected cells were selected for two weeks in media containing G418 (400 μg/ml) to obtain a pool of stably transfected cells. Independent clones were isolated from this pool by limiting dilution to obtain clonal stable cell lines for use in subsequent experiments.
(§3) Cells transfected with expression plasmids (as described in Example 4) and thereby expressing human capsaicin receptor are seeded and grown to 70-90% confluency in FALCON black-walled, clear-bottomed 96-well plates (#3904, BECTON-DICKINSON, Franklin Lakes, N.J.). The culture medium is emptied from the 96 well plates and FLUO-3 AM calcium sensitive dye (Molecular Probes, Eugene, Oreg.) is added to each well (dye solution: 1 mg FLUO-3 AM, 440 μL DMSO and 440 μ20% pluronic acid in DMSO, diluted 1:250 in Krebs-Ringer HEPES (KRH) buffer (25 mM HEPES, 5 mM KCl, 0.96 mM NaH2PO4, 1 mM MgSO4, 2 mM CaCl2, 5 mM glucose, 1 mM probenecid, pH 7.4), 50 μl diluted solution per well). Plates are covered with aluminum foil and incubated at 37° C. for 1-2 hours in an environment containing 5% CO2. After the incubation, the dye is emptied from the plates, and the cells are washed once with KRH buffer, and resuspended in KRH buffer.
To measure the ability of a test compound to agonize or antagonize a calcium mobilization response in cells expressing capsaicin receptors to capsaicin or other vanilloid agonist, the EC50 of the agonist capsaicin is first determined. An additional 20 μl of KRH buffer and 1 μl DMSO is added to each well of cells, prepared as described above. 100 μl capsaicin in KRH buffer is automatically transferred by the FLIPR instrument to each well. Capsaicin-induced calcium mobilization is monitored using either FLUOROSKAN ASCENT (Labsystems; Franklin, Mass.) or FLIPR (fluorometric imaging plate reader system; Molecular Devices, Sunnyvale, Calif.) instruments. Data obtained between 30 and 60 seconds after agonist application are used to generate an 8-point concentration response curve, with final capsaicin concentrations of 1 nM to 3 μM. KALEIDAGRAPH software (Synergy Software, Reading, Pa.) is used to fit the data to the equation: […]
to determine the 50% excitatory concentration (EC50) for the response. In this equation, y is the maximum fluorescence signal, x is the concentration of the agonist or antagonist (in this case, capsaicin), a is the Emax, b corresponds to the EC50 value and c is the Hill coefficient.
Test compounds are dissolved in DMSO, diluted in 20 μl KRH buffer so that the final concentration of test compounds in the assay well is between 1 μM and 5 μM, and added to cells prepared as described above. The 96 well plates containing prepared cells and test compounds are incubated in the dark, at room temperature for 0.5 to 6 hours. It is important that the incubation not continue beyond 6 hours. Just prior to determining the fluorescence response, 100 μl capsaicin in KRH buffer at twice the EC50 concentration determined as described above is automatically added by the FLIPR instrument to each well of the 96 well plate for a final sample volume of 200 μl and a final capsaicin concentration equal to the EC50. The final concentration of test compounds in the assay wells is between 1 μM and 5 μM. […] The concentration of antagonist required to provide a 50% decrease, relative to the response observed in the presence of capsaicin and without antagonist, is the IC50 for the antagonist, and is preferably below 1 micromolar, 100 nanomolar, 10 nanomolar or 1 nanomolar.

T1 sequence (Q8NER1 whole entry): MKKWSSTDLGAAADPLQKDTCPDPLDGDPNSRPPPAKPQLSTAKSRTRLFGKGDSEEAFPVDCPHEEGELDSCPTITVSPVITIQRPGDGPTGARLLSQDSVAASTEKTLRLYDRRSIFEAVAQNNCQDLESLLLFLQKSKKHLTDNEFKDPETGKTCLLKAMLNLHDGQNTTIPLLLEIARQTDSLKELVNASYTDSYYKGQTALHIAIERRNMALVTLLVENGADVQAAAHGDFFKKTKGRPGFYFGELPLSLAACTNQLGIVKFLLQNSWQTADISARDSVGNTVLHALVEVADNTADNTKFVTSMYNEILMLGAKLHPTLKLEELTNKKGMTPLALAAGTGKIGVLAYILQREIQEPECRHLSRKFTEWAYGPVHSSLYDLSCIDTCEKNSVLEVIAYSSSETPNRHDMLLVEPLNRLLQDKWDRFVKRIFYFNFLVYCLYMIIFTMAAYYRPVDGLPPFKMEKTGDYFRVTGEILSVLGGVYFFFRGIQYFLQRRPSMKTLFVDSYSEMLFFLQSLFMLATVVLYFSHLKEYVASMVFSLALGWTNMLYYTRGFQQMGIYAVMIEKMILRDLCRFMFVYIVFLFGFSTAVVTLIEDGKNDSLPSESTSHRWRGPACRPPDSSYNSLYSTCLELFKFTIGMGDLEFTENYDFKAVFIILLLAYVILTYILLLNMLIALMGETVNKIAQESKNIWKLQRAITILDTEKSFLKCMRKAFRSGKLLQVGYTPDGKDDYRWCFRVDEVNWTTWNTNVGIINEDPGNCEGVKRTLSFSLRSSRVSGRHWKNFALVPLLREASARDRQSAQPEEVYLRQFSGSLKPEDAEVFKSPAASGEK

Structure (SMILES) | IC50
CC1CCCN1c1nc(-c2ccc(F)cc2)cc(-c2ccc(N3CCC(O)CC3)nc2)n1 (stereo not shown) [Compound 1, 1-{5-[6-(4-fluorophenyl)-2-(2-methylpyrrolidin-1-yl)pyrimidin-4-yl]pyridin-2-yl}piperidin-4-ol] | < 1000 nM
CC1CCCN1c1nc(-c2ccc(F)cc2)cc(-c2ccc(N3CCC(C(=O)O)CC3)nc2)n1 (stereo not shown) [Compound 3, 1-{5-[6-(4-fluorophenyl)-2-(2-methylpyrrolidin-1-yl)pyrimidin-4-yl]pyridin-2-yl}piperidine-4-carboxylicacid] | < 1000 nM
Fc1ccc(-c2cc(-c3ccc(-c4ncccc4C(F)(F)F)nc3)nc(N3CCOCC3)n2)cc1Cl [Compound 5, 5′-[6-(3-chloro-4-fluorophenyl)-2-morpholin-4-ylpyrimidin-4-yl]-3-(trifluoromethyl)-2,2′-bipyridine] | < 1000 nM
Cc1cccnc1-c1ccc(-c2cc(-c3ccc(F)c(Cl)c3)nc(N3CCOCC3)n2)cn1 [Compound 6, 5′-[6-(3-chloro-4-fluorophenyl)-2-morpholin-4-ylpyrimidin-4-yl]-3-methyl-2,2′-bipyridine] | < 1000 nM
Nc1nc(-c2ccc(-c3ncccc3C(F)(F)F)cc2)cc(-c2ccc(F)c(Cl)c2)n1 [Compound 8, 4-(3-chloro-4-fluorophenyl)-6-{4-[3(trifluoromethyl)pyridin-2-yl]phenyl}pyrimidin-2-amine] | < 1000 nM
Fc1ccc(-c2cc(-c3ccc(-c4ncccc4C(F)(F)F)cc3)nc(N3CCOCC3)n2)cc1Cl [Compound 9, 4-(4-(3-chloro-4-fluorophenyl)-6-{4-[3-(trifluoromethyl)pyridin-2-yl]phenyl}pyrimidin-2-yl)morpholine] | < 1000 nM

biological target: T1, human capsaicin receptor; experiment: Calcium mobilization assay, determination of agonist activity; assay type: cell-based; details: cells expressing human capsaicin receptor, no capsaicin added, FLUO-3 fluorescence
Protocol: as §1, §2
as §3, with “After the incubation, the dye is emptied from the plates, and the cells are washed once with KRH buffer, and resuspended in KRH buffer.” left out
The ability of a test compound to act as an agonist of the capsaicin receptor is determined by measuring the fluorescence response of cells expressing capsaicin receptors elicited by the compound as function of compound concentration. […] The extent of efficacy of each test compound is also determined by calculating the response elicited by a concentration of test compound (typically 1 μM) relative to the response elicited by 100 nM capsaicin. This value, called Percent of Signal (POS), is calculated by the following equation: […]

Structure (SMILES) | EC50
CC1CCCN1c1nc(-c2ccc(F)cc2)cc(-c2ccc(N3CCC(O)CC3)nc2)n1 (stereo not shown) [Compound 1, 1-{5-[6-(4-fluorophenyl)-2-(2-methylpyrrolidin-1-yl)pyrimidin-4-yl]pyridin-2-yl}piperidin-4-ol] | < 1000 nM
CC1CCCN1c1nc(-c2ccc(F)cc2)cc(-c2ccc(N3CCC(C(N)=O)CC3)nc2)n1 (stereo not shown) [Compound 4, 1-{5-[6-(4-fluorophenyl)-2-(2-methylpyrrolidin-1-yl)pyrimidin-4-yl]pyridin-2-yl}piperidine-4-carboxamide] | < 1000 nM
CC1CCCN1c1nc(-c2ccc(F)cc2)cc(-c2ccc(N3CCC(CO)CC3)nc2)n1 (stereo not shown) [Compound 7, (1-{5-[6-(4-fluorophenyl)-2-(2-methylpyrrolidin-1-yl)pyrimidin-4-yl]pyridin-2-yl}piperidin-4-yl)methanol] | < 1000 nM

biological target: VR (Homo sapiens, UniProt Q8NER1); experiment: not given; details: typically; no more than moderate affinity; cited from earlier work
Sequence (Q8NER1 whole entry): as above

Structure (SMILES) | Ki
Cl.Cl.Cl.Cl.Cl.Cl.N.N.N.N.N.N.N.N.N.N.N.N.N.N.[O-2].[O-2].[Ru+3].[Ru+3].[Ru+4] [ruthenium red] | ≥ 140000 nM
